Test system: not listed separately
Experiment: in vitro
Assay type: cell-based
Settings: human

Q: For Nc1nc(Cl)nc2c1ncn2[C@H]1C[C@H](O)[C@@H](CO)O1 [Cladribine], which viability at 10 µM is on record?
A: 108 ± 2.7%

Q: For Clc1ccc(COC(Cn2ccnc2)c2ccc(Cl)cc2Cl)cc1 (centres unmarked) [Econazole], which viability at 10 µM is on record?
A: 88.2 ± 1.8%

Q: For O=c1[nH]cc(F)c(=O)[nH]1 [Fluorouracil], which viability at 10 µM is on record?
A: 97 ± 1.7%

Q: For CCCCC[C@H](O)/C=C/[C@H]1[C@H](O)CC(=O)[C@@H]1CCCCCCC(=O)O [Alprostadil], which viability at 10 µM is on record?
A: 100 ± 2.9%

Q: For CN(C)CCCN1c2ccccc2Sc2ccc(Cl)cc21 [Chlorpromazine], which viability at 10 µM is on record?
A: 88.6 ± 4.3%

Q: Which viability at 10 µM does the source give for CC(=O)O[C@@]12CO[C@@H]1C[C@H](O)[C@@]1(C)C(=O)[C@H](O)C3=C(C)[C@@H](OC(=O)[C@H](O)[C@@H](NC(=O)OC(C)(C)C)c4ccccc4)C[C@@](O)([C@@H](OC(=O)c4ccccc4)[C@H]21)C3(C)C [Docetaxel] here?
A: 80.8 ± 3%

Test system: Omicron SARS-CoV-2 lentiviral pseudovirus
Experiment: not given
Assay type: cell-based
Settings: not given

Q: With CN(C)CCCN1c2ccccc2CCc2ccc(Cl)cc21 [Clomipramine] as the compound, how does the “inhibition of Omicron pseudovirus entry (in words)” value (from here on “inhibition”) read?
A: enhanced inhibitory effects

Q: Which “inhibition” value does the source give for CSc1ccc2c(c1)N(CCC1CCCCN1C)c1ccccc1S2 (centres unmarked) [Thioridazine] here?
A: enhanced inhibitory effects

Q: With COC(=O)C1=C(C)NC(C)=C(C(=O)OCCCN2CCC(c3ccccc3)(c3ccccc3)CC2)[C@@H]1c1cccc([N+](=O)[O-])c1 [Dexniguldipine] as the compound, how does the “inhibition” value read?
A: strong inhibition

Same assay, conditions: Omicron pseudovirus, CaCo2 cells

Q: Which “inhibition” value does the source give for CN1CCN(CCCN2c3ccccc3Sc3ccc(C(F)(F)F)cc32)CC1 [Trifluoperazine] here?
A: enhanced inhibitory effects

Q: Which “inhibition” value does the source give for CN(C)CCCN1c2ccccc2Sc2ccc(Cl)cc21 [Chlorpromazine] here?
A: enhanced inhibitory effects

From publication PMC9108036 (Biomedicine & Pharmacotherapy, 2022)
